How the values were obtained:
TPH1 = molecular target: T1, TPH1 (Mus musculus, UniProt P17532); settings: amorphous form; cited from earlier work
T1 construct: from tissue; host or cells: mice (in vivo)
T1 sequence (P17532 1-447): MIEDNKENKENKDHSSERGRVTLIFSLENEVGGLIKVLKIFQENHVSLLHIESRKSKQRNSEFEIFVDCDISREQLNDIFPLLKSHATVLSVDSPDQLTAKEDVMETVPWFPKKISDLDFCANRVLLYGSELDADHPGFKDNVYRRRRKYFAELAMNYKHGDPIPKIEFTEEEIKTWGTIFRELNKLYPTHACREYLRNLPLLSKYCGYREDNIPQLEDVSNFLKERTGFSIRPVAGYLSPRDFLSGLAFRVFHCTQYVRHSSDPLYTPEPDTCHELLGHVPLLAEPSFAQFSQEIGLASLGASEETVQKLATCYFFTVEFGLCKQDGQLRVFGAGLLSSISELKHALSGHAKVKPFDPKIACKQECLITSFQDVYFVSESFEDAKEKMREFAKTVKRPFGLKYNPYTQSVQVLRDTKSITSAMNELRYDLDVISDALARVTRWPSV

[1] = stability and shelf life of crystalline polymorphs; assay type: physicochemical; settings: particularly at temperatures of less than 95° C.

Structure (SMILES) | efficacy in inhibiting TPH1 in mice (TPH1) | stability and shelf life compared to the crystalline Form 1 polymorph [1]
CCOC(=O)[C@@H]1CC2(CCN(c3cc(O[C@H](c4ccc(Cl)cc4-c4ccccc4)C(F)(F)F)nc(N)n3)CC2)CN1 [Compound A, (S)-ethyl 8-(2-amino-6-((R)-1-(5-chloro-[1,1′-biphenyl]-2-yl)-2,2,2-trifluoroethoxy)pyrimidin-4-yl)-2,8-diazaspiro[4.5]decane-3-carboxylate] | demonstrated | 
CCOC(=O)[C@@H]1CC2(CCN(c3cc(O[C@H](c4ccc(Cl)cc4-c4ccccc4)C(F)(F)F)nc(N)n3)CC2)CN1 [crystalline Form 3 polymorph, (S)-ethyl 8-(2-amino-6-((R)-1-(5-chloro-[1,1′-biphenyl]-2-yl)-2,2,2-trifluoroethoxy)pyrimidin-4-yl)-2,8-diazaspiro[4.5]decane-3-carboxylate] |  | substantially greater stability and shelf life
